This is an account of results in patent US20050070508A1, “Napthalene carboxamides and their derivatives useful as new anti-angiogenic agents” (AGOURON PHARMACEUTICALS, INC., priority 2003, published 2005).

For assay [1], the target named is T1, human vascular endothelial growth factor receptor 2 (VEGF-R2) (Homo sapiens, UniProt P35968, DEL940-989/E990V).
T1 construct: VEGF-R2D50 contains residues 806-939 and 990-1171; made in house; host or cells: baculovirus/insect cell system
Put plainly: VEGF-R2 coupled spectrophotometric assay (FLVK). It is filed as biochemical. The note with it: unphosphorylated VEGF-R2D50 (FLVK). From the text: This construct determines the ability of a test compound to inhibit tyrosine kinase activity. A construct (VEGF-R2D50) of the cytosolic domain of human vascular endothelial growth factor receptor 2 (VEGF-R2) lacking the 50 central residues of the 68 residues of the kinase insert domain was expressed in a baculovirus/insect cell system. Of the 1356 residues of full-length VEGF-R2, VEGF-R2D50 contains residues 806-939 and 990-1171, and also one point mutation (E990V) within the kinase insert domain relative to wild-type VEGF-R2. Autophosphorylation of the purified construct was performed by incubation of the enzyme at a concentration of […] in the presence of 3 mM ATP and 40 mM MgCl2 in 100 mM HEPES, pH 7.5, containing 5% glycerol and 5 mM DTT, at 4° C. for 2 h. […] See Parast et al., Biochemistry, 37, 16788-16801 (1998).
The production of ADP from ATP that accompanies phosphoryl transfer was coupled to oxidation of NADH using phosphoenolpyruvate (PEP) and a system having pyruvate kinase (PK) and lactic dehydrogenase (LDH). The oxidation of NADH was monitored by following the decrease of absorbance at 340 nm (e340=6.22 cm^−1 mM^−1) using a Beckman DU 650 spectrophotometer. Assay conditions for phosphorylated VEGF-R2D50 (indicated as FLVK-P in the tables below) were the following: 1 mM PEP; […]; 50 units of LDH/mL; 20 units of PK/mL; 5 mM DTT; 5.1 mM poly(E4Y1); 1 mM ATP; and 25 mM MgCl2 in 200 mM HEPES, pH 7.5. Assay conditions for unphosphorylated VEGF-R2D50 (indicated as FLVK in the tables) were the following: 1 mM PEP; […]; 50 units of LDH/mL; 20 units of PK/mL; 5 mM DTT; 20 mM poly(E4Y1); 3 mM ATP; and 60 mM MgCl2 and 2 mM MnCl2 in 200 mM HEPES, pH 7.5. Assays were initiated with 5 to 40 nM of enzyme. Ki values were determined by measuring enzyme activity in the presence of varying concentrations of test compounds. The percent inhibition at 50 nm (% inhibition @ 50 nm) was determined by linear least-squares regression analysis of absorbance as a function of time. The binding inhibitions were fitted to equation as described by Morrison. The data were analyzed using Enzyme Kinetic and Kaleidagraph software.

Assay [2] deals with human umbilical vein endothelial cells (HUVEC). The experiment in a line: HUVEC+VEGF Proliferation Assay. The note with it: VEGF-stimulated proliferation, final VEGF 6 ng/mL, 72 hours, MTT dye reduction. It is filed as cell-based. The protocol:
This assay determines the ability of a test compound to inhibit the growth factor-stimulated proliferation of human umbilical vein endothelial cells (“HUVEC”). HUVEC cells (passage 3-4, Clonetics, Corp.) were thawed into EGM2 culture medium (Clonetics Corp) in T75 flasks. Fresh EGM2 medium was added to the flasks 24 hours later. Four or five days later, cells were exposed to another culture medium (F12K medium supplemented with 10% fetal bovine serum (FBS), […] endothelial cell growth supplement (ECGS), and 0.1 mg/mL heparin). Exponentially-growing HUVEC cells were used in experiments thereafter. Ten to twelve thousand HUVEC cells were plated in 96-well dishes in […] of rich, culture medium (described above). The cells were allowed to attach for 24 hours in this medium. The medium was then removed by aspiration and […] of starvation media (F12K+1% FBS) was added to each well. After 24 hours, […] of test agent dissolved in 1% DMSO in starvation medium or this vehicle alone was added into each treatment well; the final DMSO concentration was 0.1%. One hour later, […] of VEGF (30 ng/mL) in starvation media was added to all wells except those containing untreated controls; the final VEGF concentration was 6 ng/mL. Cellular proliferation was quantified 72 hours later by MTT dye reduction, at which time cells were exposed for 4 hours MTT (Promega Corp.). Dye reduction was stopped by addition of a stop solution (Promega Corp.) and absorbance at 595 nm was determined on a 96-well spectrophotometer plate reader.
(In general: Formazan colour is commonly taken as a measure of viable cells.)

Some results are limits rather than exact numbers.

The Ki is a dissociation constant, usually derived from enzyme kinetics or from competition with a known ligand. A high value points to weaker binding. One may read the IC50 as the concentration at which inhibition is half-maximal.

T1 sequence (P35968 with tags, fused parts or gaps DEL940-989/E990V limits assumed): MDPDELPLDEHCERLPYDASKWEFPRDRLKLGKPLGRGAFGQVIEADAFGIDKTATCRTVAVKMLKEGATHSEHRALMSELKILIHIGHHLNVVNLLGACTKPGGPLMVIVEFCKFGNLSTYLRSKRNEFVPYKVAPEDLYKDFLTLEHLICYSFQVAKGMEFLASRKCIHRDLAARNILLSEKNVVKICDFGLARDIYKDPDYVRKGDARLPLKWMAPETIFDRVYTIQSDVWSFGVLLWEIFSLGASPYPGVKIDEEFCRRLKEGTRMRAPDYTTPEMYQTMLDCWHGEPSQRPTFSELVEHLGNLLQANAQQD

For the compound `O=C(NCCCN1CCOCC1)c1cccc2cc(Oc3ccnc4cc(C(=O)N5CCC5)sc34)ccc12` [Example 32, 6-[2-(Azetidine-1-carbonyl)-thieno[3,2-b]pyridin-7-yloxy]-naphthalene-1-carboxylic acid (3-morpholin-4-yl-propyl)-amide], the inhibition constant (Ki) in assay [1] was less than 1 nM. Besides, the IC50 in assay [2] lay in the range of 1 to 10 nM.
Turning to `O=C(Nc1ccc(N2CCC(O)CC2)nc1)c1cccc2cc(Oc3ccnc4ccsc34)ccc12` [Example 34, 6-(Thieno[3,2-b]pyridin-7-yloxy)-naphthalene-1-carboxylic acid (4-hydroxy-3,4,5,6-tetrahydro-2H-[1,2′]bipyridinyl-5′-yl)-amide], the Ki in assay [1] was less than 1 nM. The half-maximal inhibitory concentration (IC50) in assay [2] fell in the range of 1 to 10 nM.
The compound `O=C(Nc1ccc(N2CCOCC2)nc1)c1cccc2cc(Oc3ccnc4ccsc34)ccc12` [Example 35, 6-(Thieno[3,2-b]pyridin-7-yloxy)-naphthalene-1-carboxylic acid (6-morpholin-4-yl-pyridin-3-yl)-amide] had an inhibition constant (Ki) in assay [1] of less than 1 nM. Moreover, the IC50 in assay [2] is 1 to 10 nM.
Compound `O=C(NCCCN1CCOCC1)c1cccc2cc(Oc3ccnc4ccsc34)ccc12` [Example 39, 6-(Thieno[3,2-b]pyridin-7-yloxy)-naphthalene-1-carboxylic acid (3-morpholin-4-yl-propyl)-amide] registered a Ki in assay [1] of 1 to 10 nM. In addition, the half-maximal inhibitory concentration (IC50) in assay [2] was 1 to 10 nM.
In assay [1], `O=C(NCCCN1CCOCC1)c1cccc2cc(Oc3ncnc4ccsc34)ccc12` [Example 42, 6-(Thieno [3,2-d]pyrimidin-4-yloxy)-naphthalene-1-carboxylic acid (3-morpholin-4-yl-propyl)-amide] displayed a Ki of 1 to 10 nM. Also, the 50% inhibitory concentration (IC50) in assay [2] is more than 10 nM.
In turn, `CNC(=O)c1cccc2cc(Oc3ccnc4cc(OC)ccc34)ccc12` [Example 43, 6-(7-Methoxy-quinolin-4-yloxy)-naphthalene-1-carboxylic Acid Methylamide] showed an inhibitory constant (Ki) in assay [1] of 1 to 10 nM. In assay [2], the half-maximal inhibitory concentration (IC50) lay within 1 to 10 nM.
Compound `CNC(=O)c1cccc2cc(Oc3ccnc4cc(OCCN5CCOCC5)ccc34)ccc12` [Example 45, 6-[7-(2-Morpholin-4-yl-ethoxy)-quinolin-4-yloxy]-naphthalene-1-carboxylic Acid Methylamide] registered a Ki in assay [1] of less than 1 nM. Moreover, the IC50 in assay [2] was less than 1 nM.
In assay [1], `CNC(=O)c1cccc2cc(Oc3ccnc4cc(OCCN5CCCCC5)ccc34)ccc12` [Example 46, 6-[7-(2-Piperidin-1-yl-ethoxy)-quinolin-4-yloxy]-naphthalene-1-carboxylic Acid Methylamide] registered a Ki of 1 to 10 nM. In addition, in assay [2], the IC50 was less than 1 nM.
For `CCCCNC(=O)c1cccc2cc(Oc3ccnc4cc(OCCN5CCCC5)ccc34)ccc12` [Example 49, 6-[7-(2-Pyrrolidin-1-yl-ethoxy)-quinolin-4-yloxy]-naphthalene-1-carboxylic Acid Butylamide], in that order: 1 to 10 nM and 1 to 10 nM.
The like results for `COc1ccc2c(Oc3ccc4c(C(=O)NC(C)C)cccc4c3)ccnc2c1` [Example 50, 6-(7-Methoxy-quinolin-4-yloxy)-naphthalene-1-carboxylic Acid Isopropylamide] were, in that order, 1 to 10 nM and more than 10 nM.
Compound `COc1ccc2c(Oc3ccc4c(C(=O)NC5CC5)cccc4c3)ccnc2c1` [Example 51, 6-(7-Methoxy-quinolin-4-yloxy)-naphthalene-1-carboxylic acid cyclopropylamide] yielded an inhibition constant Ki in assay [1] of less than 1 nM. The IC50 in assay [2] fell in the range of 1 to 10 nM.
